In US12193972B2, “Intraocular drug delivery systems and methods of use” (SpyGlass Pharma, Inc., priority 2022, dated 2025):

Key:
[1] = daily release or elution of Bimatoprost in vitro versus time (FIG. 8); format: physicochemical; settings: four-hundred-day study
[2] = Bimatoprost sampled in the aqueous humor of dogs over time (FIG. 9); format: in vivo
Text: In this example, there was a low dose group of dogs (Grp 1), a mid-dose group of dogs (Grp 2), a high dose group of dogs (Grp 3), and a placebo group of dogs (Grp 4).

average release rate ([1]; drug delivery component): less than 0.100 micrograms per day
level of Bimatoprost in the aqueous humor, elution kinetics ([2]; low dose (Grp 1), mid-dose (Grp 2) and high dose (Grp 3) groups, study period of about one hundred thirteen days): zero-order elution rate
mean measurements of Bimatoprost in the aqueous humor, dose dependence ([2]; low, mid and high dose groups): increased with the higher doses
SMILES: CCNC(=O)CCC/C=C\C[C@@H]1[C@@H](/C=C/[C@@H](O)CCc2ccccc2)[C@H](O)C[C@@H]1O [Bimatoprost]
release kinetics over the study [1]: essentially a zero-order and/or a steady state elution rate
